# From the supplement of paper PMC10307832
# Assays:
# Test in all cases: relative viability (nuclei count vs DMSO), 5 days (fraction); higher = more cells survive
# [1] = test system: BEN
# Summary of the method: (§1)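 Nuclei were stained with Hoechst during a one-step fixation (final 0.05% Triton X-100, 1% formaldehyde, 1 ug/ml Hoechst) carried out 5 days after dosing, then counted on 4× images. The cells, lung cancer lines in 1536-well plates, had been dosed by pin tool the day after seeding with one drug alone or a fixed anchor-drug dose plus five library-drug doses (not always all listed) in √10 steps. Relative viability is the nuclei count in treated wells divided by that in vehicle wells, and each value is the median of duplicate plates.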
# [2] = test system: EMC-BAC-2
# Summary of the method: as §1
# [3] = test system: HCC-15
# Summary of the method: as §1
# [4] = test system: HCC-44
# Summary of the method: as §1
# [5] = test system: HOP-62
# Summary of the method: as §1
# [6] = test system: LC-2-ad
# Summary of the method: as §1
# [7] = test system: LU99A
# Summary of the method: as §1
# [8] = test system: NCI-H1395
# Summary of the method: as §1
# [9] = test system: NCI-H1437
# Summary of the method: as §1
# [10] = test system: NCI-H1563
# Summary of the method: as §1
# [11] = test system: NCI-H1734
# Summary of the method: as §1
# [12] = test system: NCI-H1755
# Summary of the method: as §1
# [13] = test system: NCI-H1915
# Summary of the method: as §1
# [14] = test system: NCI-H2023
# Summary of the method: as §1
# [15] = test system: NCI-H2126
# Summary of the method: as §1
# [16] = test system: NCI-H2170
# Summary of the method: as §1
# [17] = test system: NCI-H3122
# Summary of the method: as §1
# [18] = test system: NCI-H358
# Summary of the method: as §1
# [19] = test system: NCI-H650
# Summary of the method: as §1
# [20] = test system: NCI-H727
# Summary of the method: as §1
# [21] = test system: SW 1573
# Summary of the method: as §1
smiles,measurement,setting,value
Cc1cn(-c2cc(NC(=O)c3ccc(C)c(Nc4nccc(-c5cccnc5)n4)c3)cc(C(F)(F)F)c2)cn1 [Nilotinib] + CS(=O)(=O)N1CCN(Cc2cc3nc(-c4cccc5[nH]ncc45)nc(N4CCOCC4)c3s2)CC1 [Pictilisib] (partner 1 µM),relative viability,[1]; first compound 0.001 µM,0.588
same,relative viability,[1]; first compound 0.003162 µM,0.552
same,relative viability,[1]; first compound 0.01 µM,0.574
same,relative viability,[1]; first compound 0.1 µM,0.556
same,relative viability,[2]; first compound 0.001 µM,0.528
same,relative viability,[2]; first compound 0.003162 µM,0.538
same,relative viability,[2]; first compound 0.01 µM,0.606
same,relative viability,[2]; first compound 0.03162 µM,0.486
same,relative viability,[2]; first compound 0.1 µM,0.479
same,relative viability,[3]; first compound 0.001 µM,0.703
same,relative viability,[3]; first compound 0.003162 µM,0.874
same,relative viability,[3]; first compound 0.01 µM,0.843
same,relative viability,[3]; first compound 0.03162 µM,0.542
same,relative viability,[3]; first compound 0.1 µM,0.301
same,relative viability,[4]; first compound 0.001 µM,0.607
same,relative viability,[4]; first compound 0.003162 µM,0.743
same,relative viability,[4]; first compound 0.01 µM,0.589
same,relative viability,[4]; first compound 0.03162 µM,0.517
same,relative viability,[4]; first compound 0.1 µM,0.37
same,relative viability,[5]; first compound 0.001 µM,0.539
same,relative viability,[5]; first compound 0.003162 µM,0.902
same,relative viability,[5]; first compound 0.01 µM,0.587
same,relative viability,[5]; first compound 0.03162 µM,0.63
same,relative viability,[5]; first compound 0.1 µM,0.401
same,relative viability,[6]; first compound 0.001 µM,0.385
same,relative viability,[6]; first compound 0.003162 µM,0.518
same,relative viability,[6]; first compound 0.01 µM,0.547
same,relative viability,[6]; first compound 0.03162 µM,0.379
same,relative viability,[6]; first compound 0.1 µM,0.117
same,relative viability,[7]; first compound 0.001 µM,0.295
same,relative viability,[7]; first compound 0.003162 µM,0.412
same,relative viability,[7]; first compound 0.01 µM,0.328
same,relative viability,[7]; first compound 0.03162 µM,0.342
same,relative viability,[7]; first compound 0.1 µM,0.277
same,relative viability,[8]; first compound 0.001 µM,0.711
same,relative viability,[8]; first compound 0.003162 µM,0.581
same,relative viability,[8]; first compound 0.01 µM,0.566
same,relative viability,[8]; first compound 0.03162 µM,0.552
same,relative viability,[8]; first compound 0.1 µM,0.401
same,relative viability,[9]; first compound 0.001 µM,0.381
same,relative viability,[9]; first compound 0.003162 µM,0.414
same,relative viability,[9]; first compound 0.01 µM,0.373
same,relative viability,[9]; first compound 0.03162 µM,0.47
same,relative viability,[9]; first compound 0.1 µM,0.44
same,relative viability,[10]; first compound 0.001 µM,0.553
same,relative viability,[10]; first compound 0.003162 µM,0.608
same,relative viability,[10]; first compound 0.01 µM,0.649
same,relative viability,[10]; first compound 0.03162 µM,0.602
same,relative viability,[10]; first compound 0.1 µM,0.46
same,relative viability,[11]; first compound 0.001 µM,0.445
same,relative viability,[11]; first compound 0.003162 µM,0.48
same,relative viability,[11]; first compound 0.01 µM,0.447
same,relative viability,[11]; first compound 0.03162 µM,0.384
same,relative viability,[11]; first compound 0.1 µM,0.236
same,relative viability,[12]; first compound 0.001 µM,0.445
same,relative viability,[12]; first compound 0.003162 µM,0.466
same,relative viability,[12]; first compound 0.01 µM,0.411
same,relative viability,[12]; first compound 0.03162 µM,0.34
same,relative viability,[12]; first compound 0.1 µM,0.261
same,relative viability,[13]; first compound 0.001 µM,0.958
same,relative viability,[13]; first compound 0.003162 µM,1.02
same,relative viability,[13]; first compound 0.01 µM,0.903
same,relative viability,[13]; first compound 0.03162 µM,0.993
same,relative viability,[13]; first compound 0.1 µM,0.408
same,relative viability,[14]; first compound 0.001 µM,0.225
same,relative viability,[14]; first compound 0.003162 µM,0.192
same,relative viability,[14]; first compound 0.01 µM,0.226
same,relative viability,[14]; first compound 0.03162 µM,0.221
same,relative viability,[14]; first compound 0.1 µM,0.101
same,relative viability,[15]; first compound 0.001 µM,0.494
same,relative viability,[15]; first compound 0.003162 µM,0.501
same,relative viability,[15]; first compound 0.01 µM,0.393
same,relative viability,[15]; first compound 0.03162 µM,0.546
same,relative viability,[15]; first compound 0.1 µM,0.378
same,relative viability,[16]; first compound 0.001 µM,0.283
same,relative viability,[16]; first compound 0.003162 µM,0.306
same,relative viability,[16]; first compound 0.01 µM,0.296
same,relative viability,[16]; first compound 0.03162 µM,0.349
same,relative viability,[16]; first compound 0.1 µM,0.299
same,relative viability,[17]; first compound 0.001 µM,0.666
same,relative viability,[17]; first compound 0.003162 µM,0.846
same,relative viability,[17]; first compound 0.01 µM,0.808
same,relative viability,[17]; first compound 0.03162 µM,0.473
same,relative viability,[17]; first compound 0.1 µM,0.436
same,relative viability,[18]; first compound 0.001 µM,0.375
same,relative viability,[18]; first compound 0.003162 µM,0.438
same,relative viability,[18]; first compound 0.01 µM,0.348
same,relative viability,[18]; first compound 0.03162 µM,0.444
same,relative viability,[18]; first compound 0.1 µM,0.301
same,relative viability,[19]; first compound 0.001 µM,0.817
same,relative viability,[19]; first compound 0.003162 µM,0.775
same,relative viability,[19]; first compound 0.01 µM,0.841
same,relative viability,[19]; first compound 0.03162 µM,0.853
same,relative viability,[19]; first compound 0.1 µM,0.767
same,relative viability,[20]; first compound 0.001 µM,0.382
same,relative viability,[20]; first compound 0.01 µM,0.447
same,relative viability,[20]; first compound 0.1 µM,0.264
same,relative viability,[21]; first compound 0.001 µM,0.486
same,relative viability,[21]; first compound 0.003162 µM,0.652
same,relative viability,[21]; first compound 0.01 µM,0.5
same,relative viability,[21]; first compound 0.03162 µM,0.427
same,relative viability,[21]; first compound 0.1 µM,0.588
